From paper PMC3072031 (Analytical chemistry, 2010)

How the values were obtained:
Aβ(1–40) mAb = settings: reported value; ref [41]; cited from earlier work
detection conjugate = assay type: binding; settings: deduced from equation (1)

Row | Substance | KD between the Aβ(1–40) mAb and Aβ(1–40), in words (Aβ(1–40) mAb) | KD deduced from Langmuir isotherm, in words (detection conjugate)
1 | Aβ(1–40): amyloid-β peptide, purchased from American Peptide Inc.; endogenous peptide in human CSF samples | nanomolar level | nanomolar level
2 | Aβ(1–42): 42-residue-long amyloid-β peptide, purchased from American Peptide Inc.; endogenous peptide in human CSF samples | – | nanomolar level
